From US12370183B2, “Compositions and methods for treating malaria” (Rutgers, The State University of New Jersey, priority 2020, dated 2025)
Like-named read-outs stand apart in the source and are kept apart here.

Columns and labels:
Wild-Type attB Pf Dd2 = test: P. falciparum (Dd2 strain) asexual blood stage assay, wild-type attB; assay type: cell-based; conditions: Plasmodium falciparum
Experimental: Assays using human blood cells infected with Plasmodium falciparum: (Pf) parasites, both wild-type strains as well as mutant drug-resistant strains, were performed as described below. Wild-type strains used were aatB Pf (Dd2 strain) and Pf (Dd2 strain). Mutant strains used were proguanil resistant attb Pf (Dd2 strain), dihydroorotate dehydrogenase (DHODH) deficient aatB Pf (Dd2 strain), and DHODH deficient and proguanil resistant Pf (Dd2 strain).
2008 Jul. 1; 105(26):9059-64.
Parasitemia was estimated by blood smear Giemsa stain and visual inspection under the microscopic.
The screening plate was prepared by centrifuging for parasite culture for 5 min at 800×g at RT (low brake) and removing supernatant. A parasite suspension was prepared with 0.3% parasitemia and 4% hematocrit in screening medium (SM). The suspension was gassed with a gas mixture of 1% oxygen, 3% carbon dioxide, 96% nitrogen and stored at 37° C. for until ready to use. 50 nl of 1 mM compound in DMSO was prespotted into 1536 well plates (final drug conc. of 12.5 μM, final DMSO conc. of 0.625%) with the acoustic dispenser ATS. Controls were Artemisinin, Chloroquine, and DMSO. 8 μl of SM was dispensed into 1,536-well, black, clear-bottom plates (Greiner) using the MultiFlo™ Microplate dispenser (BioTek) (final parasitemia of 0.3% and 2.5% hematocrit in SM). The plates were incubated at 37° C. for 72 h with water-soaked tissue in a closed ziploc bag gassed with 1% oxygen, 3% carbon dioxide, 96% nitrogen.
2 μl of detection reagent mixture (10×SYBR Green I (Invitrogen) in Lysis buffer (20 mM Tris/HCl, 5 mM EDTA, 0.16% Saponin wt/vol, 1.6% Triton X vol/vol) was added. Assay plates were read from the bottom by using the 2104 EnVision® Multilabel Reader (PerkinElmer) (485 nm excitation, 530 nm emission). The results are presented in Table 5 below.

[1] = tested on: 3D7 strain of Plasmodium falciparum; test: Potency in the 3D7 strain of Plasmodium falciparum (EC50); assay type: cell-based; conditions: Plasmodium falciparum
[2] = DD2, 72 h, read-out: Wild-Type attB Pf Dd2 IC50 (uM)
[3] = DD2, read-out: IC50 against wild-type attB Pf
[4] = 3D7, read-out: 3D7 Mean EC50 (μM)

For `O=C1c2c3c(nc4ccccc24)CCN(Cc2ccccc2)C3N1c1ccc(F)c(F)c1` (stereo not shown) [Compound 177, 3-Benzyl-2-(3,4-difluorophenyl)-2a,3,4,5-tetrahydrobenzo[b]pyrrolo[4,3,2-de][1,6]naphthyridin-1(2H)-one], the IC50 (Wild-Type attB Pf Dd2; [2]) was 0.00895 µM, the IC50 (Wild-Type attB Pf Dd2; [3]) was 0.00895 µM and the EC50 [1, 4] was 0.00328 ± 0.000533 µM.
In the case of `O=C(Nc1ccc(F)c(F)c1)c1c2c(nc3ccccc13)CCN(Cc1ccccc1)C2` [Compound 66, 2-Benzyl-N-(3,4-difluorophenyl)-1,2,3,4-tetrahydrobenzo[b][1,6]naphthyridine-10-carboxamide], the IC50 (Wild-Type attB Pf Dd2; [2]) is reported as 0.0565 µM, the IC50 (Wild-Type attB Pf Dd2; [3]) is reported as 0.0556 µM and the EC50 ([1]; 3D7, read-out: 3D7 EC50) is reported as 0.0204 µM. For the same compound, the EC50 [1, 4] was > 3.49 µM.
